In data set [1] the target is T1, CYP 1A2 (Homo sapiens, UniProt P05177).
T1 construct: purchased CYPEX; host or cells: E. coli
T1 sequence (P05177 1-516): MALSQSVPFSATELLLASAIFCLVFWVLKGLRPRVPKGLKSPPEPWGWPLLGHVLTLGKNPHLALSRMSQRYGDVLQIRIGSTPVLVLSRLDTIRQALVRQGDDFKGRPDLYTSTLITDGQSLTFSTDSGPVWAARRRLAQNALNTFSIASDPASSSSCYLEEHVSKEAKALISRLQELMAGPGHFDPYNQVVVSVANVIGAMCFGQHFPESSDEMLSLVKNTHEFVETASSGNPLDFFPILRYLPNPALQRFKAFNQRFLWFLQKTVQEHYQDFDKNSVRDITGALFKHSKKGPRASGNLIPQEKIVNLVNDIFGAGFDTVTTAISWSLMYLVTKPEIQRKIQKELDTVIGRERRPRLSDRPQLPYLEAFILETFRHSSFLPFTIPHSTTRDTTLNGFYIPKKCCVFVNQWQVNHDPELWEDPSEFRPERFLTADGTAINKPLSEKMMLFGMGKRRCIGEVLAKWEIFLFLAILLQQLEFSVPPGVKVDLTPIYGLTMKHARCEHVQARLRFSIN
Nature of the data set: CYP inhibition, E. coli CYPEX membranes. It counts as in vitro ADME. Conditions: specific probe substrates. The protocol: (§1) Using E. coli CYPEX membranes in combination with specific probe substrates, the inhibition of individual CYPs by compounds of the invention using the method described in Weaver et al., 2003, Drug Metab Dispos 31:7, 955-966 was assessed.

Data set [2] has as its target T2, CYP 2C9 (Homo sapiens, UniProt P11712).
T2 construct: purchased CYPEX; host or cells: E. coli
Nature of the data set: CYP inhibition, E. coli CYPEX membranes. It counts as in vitro ADME. Conditions: specific probe substrates. The protocol: as §1

Data set [3] addresses T3, CYP 2D6 (Homo sapiens, UniProt P10635).
T3 construct: purchased CYPEX; host or cells: E. coli
Nature of the data set: CYP inhibition, E. coli CYPEX membranes. It counts as in vitro ADME. Conditions: specific probe substrates. The protocol: as §1

Data set [4] deals with T4, CYP 3A4 (Homo sapiens, UniProt P08684).
T4 construct: purchased CYPEX; host or cells: E. coli
Nature of the data set: CYP inhibition, E. coli CYPEX membranes. As to conditions: specific probe substrates. It counts as in vitro ADME. The protocol: as §1

Data set [5] addresses T5, CYP 2C19 (Homo sapiens, UniProt P33261).
T5 construct: purchased CYPEX; host or cells: E. coli
Nature of the data set: CYP inhibition, E. coli CYPEX membranes. As to conditions: specific probe substrates. It counts as in vitro ADME. The protocol: as §1

In data set [6] the target is hERG (Homo sapiens, UniProt Q12809). Nature of the data set: hERG channel inhibition, Patchliner automated patch clamp. It counts as cell-based. Conditions: human; at 100 μM. The protocol:
(§2) Compounds of the invention were tested for inhibition of cardiac potassium (hERG) channels using the Patchliner automated patch clamp. 6-Point concentration-response curves were generated using half-log serial dilutions from a maximum final test concentration of 100 μM. IC50 values were obtained from a 4-parameter logistic fit of the concentration-response data. […] Reference compound values were consistent with those presented in the literature (Elkins et al., 2013 J. Pharm. Tox. Meth. 68:11-122).
In general terms: hERG is a cardiac potassium channel; its block is linked to QT prolongation.

Data set [7] deals with cardiac potassium (hERG) channels (Homo sapiens, UniProt Q12809). The description is as above. It counts as cell-based. As to conditions: automated patch clamp, maximum test concentration 100 μM. The protocol:
as §2

A short description of data set [8]: Pharmacokinetics in mice. It counts as in vivo. Conditions: male C57BI/6 mice. How it is done:
N,N-dimethyl-4-((6-oxopyrimidin-1(6H)-yl)methyl)benzamide was administered to male C57BI/6 mice intravenously (2 mg/kg) or orally (10 mg/kg) by gavage. Whole blood diluted with water was prepared from these dosed animals over a time course up to 24 hours post dose to allow blood concentrations of drug to be measured by UPLC-MS/MS.

Data set [9] addresses human Z A1AT (Homo sapiens, UniProt P01009, E366K). Nature of the data set: A1AT cell secretion assay using HEK-Z cells (ELISA). Further details: expressed in transfected cells; host or cells: HEK-Z (HEK-EBNA cells containing the Z A1AT plasmid). As to conditions: HEK-Z cells, 10, 33, 100 and 333 nM, 48 h, cell supernatant. It counts as cell-based. How it is done:
HEK-Z cells, a human embryonic kidney cell line stably transfected with the human Z A1AT gene, were plated into 96 well plates (3.0×10^5 cells/ml with 200 μl of media/well) overnight at 37° C. in a humidified atmosphere containing 5% CO2. Following incubation cells were washed with 200 μl serum-free media three times and media was replaced with treatments in quadruplicate using serum-free media containing either vehicle, 10 μM suberanilohydroxamic acid (SAHA), N,N-dimethyl-4-((6-oxopyrimidin-1(6H)-yl)methyl)benzamide (at concentrations of 10, 33, 100 and 333 nM), N,N-(bis-methyl-d3)-4-((6-oxopyrimidin-1(6H)-yl)methyl)benzamide (at concentrations of 10, 33, 100 and 333 nM) or N-methyl-4-((6-oxopyrimidin-1(6H)-yl)methyl)benzamide (at concentrations of 10, 33, 100 and 333 nM) for 48 h in a 37° C. incubator in a final volume of 200 μl. At the end of the incubation step the supernatants were removed from the wells, centrifuged at 1000×g at 4° C. for 10 min and were assayed for human A1AT levels by ELISA (Human Serpin A1/α1-antitrypsin duo set ELISA, R& D Systems, DY1268) per manufacturer's instructions.
Briefly, a 96 well plate was coated with human A1AT capture antibody overnight at room temperature (1:180 dilution from stock, 100 μl final volume/well). The capture antibody was then removed and wells washed three times with 300 μl wash buffer (0.05% Tween 20 in PBS) and then 200 μl reagent diluent ([…]) was incubated in each well for 1 h at room temperature. […] After which, 50 μl stop solution (2M H2SO4) was added and optical density (OD) of each well was read at 450 nm with 570 nm blank subtracted from each well using a microplate reader. A 4 parameter logistic curve was constructed using GraphPad Prism 7 and A1AT concentrations were determined in each sample by interpolation from a standard curve and multiplying by the appropriate dilution factor.
The amount of A1AT secreted from transfected HEK-EBNA cells into the media was measured by ELISA. […]

Setting [10] is: mouse, whole blood, iv 2 mg/kg or oral 10 mg/kg (route not stated), blood.

pIC50: −log10 of the molar value.

T4 sequence (P08684 whole entry): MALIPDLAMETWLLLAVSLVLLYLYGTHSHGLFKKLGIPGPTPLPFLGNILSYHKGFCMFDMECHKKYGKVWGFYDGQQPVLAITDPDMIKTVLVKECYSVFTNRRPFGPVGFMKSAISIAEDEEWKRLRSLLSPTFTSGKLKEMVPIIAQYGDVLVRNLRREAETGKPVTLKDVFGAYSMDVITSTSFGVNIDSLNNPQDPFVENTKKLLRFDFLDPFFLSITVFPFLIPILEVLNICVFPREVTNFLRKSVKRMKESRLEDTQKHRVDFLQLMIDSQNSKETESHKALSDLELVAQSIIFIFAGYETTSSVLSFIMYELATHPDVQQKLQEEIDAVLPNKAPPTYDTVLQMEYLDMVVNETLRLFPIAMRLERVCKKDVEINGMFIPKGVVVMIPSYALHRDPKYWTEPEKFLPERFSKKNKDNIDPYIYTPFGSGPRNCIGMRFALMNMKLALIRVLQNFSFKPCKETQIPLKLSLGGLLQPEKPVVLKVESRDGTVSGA
T3 sequence (P10635 whole entry): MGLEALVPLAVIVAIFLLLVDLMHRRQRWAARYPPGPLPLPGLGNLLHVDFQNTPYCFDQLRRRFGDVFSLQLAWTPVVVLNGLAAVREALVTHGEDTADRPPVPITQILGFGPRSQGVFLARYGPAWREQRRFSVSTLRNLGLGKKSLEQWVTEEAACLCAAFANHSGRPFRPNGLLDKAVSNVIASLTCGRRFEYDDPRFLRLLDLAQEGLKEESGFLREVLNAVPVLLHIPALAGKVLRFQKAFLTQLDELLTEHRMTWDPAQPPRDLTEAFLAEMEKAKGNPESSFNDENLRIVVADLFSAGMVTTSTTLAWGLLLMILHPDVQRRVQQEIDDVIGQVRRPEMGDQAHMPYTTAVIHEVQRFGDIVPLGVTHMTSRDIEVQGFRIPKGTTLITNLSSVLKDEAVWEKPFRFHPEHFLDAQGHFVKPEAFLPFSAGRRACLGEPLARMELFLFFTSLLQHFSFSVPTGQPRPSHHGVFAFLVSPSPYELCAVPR
T2 sequence (P11712 whole entry): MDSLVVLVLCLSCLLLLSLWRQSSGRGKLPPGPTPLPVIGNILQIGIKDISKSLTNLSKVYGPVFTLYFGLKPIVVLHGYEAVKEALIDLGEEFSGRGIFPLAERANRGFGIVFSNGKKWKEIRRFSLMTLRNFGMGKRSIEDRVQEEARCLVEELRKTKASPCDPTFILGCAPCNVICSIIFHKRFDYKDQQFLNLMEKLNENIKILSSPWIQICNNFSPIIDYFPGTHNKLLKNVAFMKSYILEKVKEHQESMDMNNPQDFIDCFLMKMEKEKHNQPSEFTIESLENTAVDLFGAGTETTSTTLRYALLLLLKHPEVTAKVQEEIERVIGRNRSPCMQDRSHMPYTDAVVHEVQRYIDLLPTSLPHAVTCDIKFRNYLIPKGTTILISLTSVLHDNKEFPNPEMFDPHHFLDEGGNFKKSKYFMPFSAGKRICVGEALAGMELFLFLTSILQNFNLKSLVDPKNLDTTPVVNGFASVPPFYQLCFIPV
T5 sequence (P33261 whole entry): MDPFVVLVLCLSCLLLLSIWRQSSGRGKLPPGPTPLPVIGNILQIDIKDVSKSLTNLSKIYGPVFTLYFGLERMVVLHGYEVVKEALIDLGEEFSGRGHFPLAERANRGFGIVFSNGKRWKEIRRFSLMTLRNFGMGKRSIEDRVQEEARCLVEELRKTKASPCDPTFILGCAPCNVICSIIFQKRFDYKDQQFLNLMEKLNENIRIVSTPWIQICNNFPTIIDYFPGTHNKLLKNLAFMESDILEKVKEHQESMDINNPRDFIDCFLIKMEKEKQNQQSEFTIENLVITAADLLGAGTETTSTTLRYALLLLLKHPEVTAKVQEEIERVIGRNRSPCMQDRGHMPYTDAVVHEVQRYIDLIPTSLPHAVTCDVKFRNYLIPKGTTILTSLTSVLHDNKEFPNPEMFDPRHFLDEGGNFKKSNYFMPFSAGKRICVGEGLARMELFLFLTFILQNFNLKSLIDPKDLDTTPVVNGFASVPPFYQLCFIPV
human Z A1AT, sequence (P01009 25-418 E366K): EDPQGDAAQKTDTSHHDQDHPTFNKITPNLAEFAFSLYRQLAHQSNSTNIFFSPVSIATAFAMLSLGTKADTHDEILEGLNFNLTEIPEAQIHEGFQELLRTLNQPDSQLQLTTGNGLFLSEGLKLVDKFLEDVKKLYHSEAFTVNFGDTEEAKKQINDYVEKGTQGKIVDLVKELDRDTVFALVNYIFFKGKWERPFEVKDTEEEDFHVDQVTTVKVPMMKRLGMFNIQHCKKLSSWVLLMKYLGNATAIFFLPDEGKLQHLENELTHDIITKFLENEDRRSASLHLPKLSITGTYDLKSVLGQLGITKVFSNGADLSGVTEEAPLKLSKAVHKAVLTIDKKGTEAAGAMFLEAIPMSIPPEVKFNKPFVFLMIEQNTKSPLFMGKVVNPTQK
cardiac potassium (hERG) channels, sequence (Q12809 whole entry): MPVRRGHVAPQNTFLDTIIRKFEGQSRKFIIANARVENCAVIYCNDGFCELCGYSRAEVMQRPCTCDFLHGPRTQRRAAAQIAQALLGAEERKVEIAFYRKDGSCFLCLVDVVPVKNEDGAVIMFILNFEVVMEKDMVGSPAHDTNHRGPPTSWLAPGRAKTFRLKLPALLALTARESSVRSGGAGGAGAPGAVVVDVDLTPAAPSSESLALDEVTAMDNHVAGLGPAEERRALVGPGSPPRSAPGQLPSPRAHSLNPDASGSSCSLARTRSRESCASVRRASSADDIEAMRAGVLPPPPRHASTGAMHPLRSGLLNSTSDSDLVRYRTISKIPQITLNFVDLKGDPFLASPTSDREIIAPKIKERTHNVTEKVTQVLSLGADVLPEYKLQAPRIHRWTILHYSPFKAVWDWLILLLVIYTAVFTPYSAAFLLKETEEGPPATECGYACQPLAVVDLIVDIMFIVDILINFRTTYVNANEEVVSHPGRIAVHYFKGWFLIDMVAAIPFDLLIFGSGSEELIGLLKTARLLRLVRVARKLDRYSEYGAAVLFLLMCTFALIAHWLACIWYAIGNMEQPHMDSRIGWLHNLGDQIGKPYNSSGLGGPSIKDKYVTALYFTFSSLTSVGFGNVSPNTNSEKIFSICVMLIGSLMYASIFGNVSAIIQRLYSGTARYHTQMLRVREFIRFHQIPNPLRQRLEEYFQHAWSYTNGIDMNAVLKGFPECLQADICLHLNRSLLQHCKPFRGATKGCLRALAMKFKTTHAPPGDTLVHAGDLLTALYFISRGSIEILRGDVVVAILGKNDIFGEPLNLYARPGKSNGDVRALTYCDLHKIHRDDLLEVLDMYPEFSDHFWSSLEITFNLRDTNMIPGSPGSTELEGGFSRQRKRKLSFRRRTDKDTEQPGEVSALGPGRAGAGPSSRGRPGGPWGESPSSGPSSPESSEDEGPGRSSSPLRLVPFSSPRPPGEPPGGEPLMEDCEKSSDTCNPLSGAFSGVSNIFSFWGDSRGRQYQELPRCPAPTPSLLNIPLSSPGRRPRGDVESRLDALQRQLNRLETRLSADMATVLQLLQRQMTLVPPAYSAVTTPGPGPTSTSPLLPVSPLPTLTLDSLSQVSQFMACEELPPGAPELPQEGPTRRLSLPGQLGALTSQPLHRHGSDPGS
hERG, sequence (Q12809 whole entry): as above

As for `CN(C)C(=O)c1ccc(Cn2cnccc2=O)cc1` [N,N-dimethyl-4-((6-oxopyrimidin-1(6H)-yl)methyl)benzamide], the pIC50 (in general, −log10 of the IC50, conventionally taken in molar units) in [1] was less than 4.30; in data set [2], less than 4.30; in data set [3] it was less than 4.30; in [4] it was less than 4.30; in data set [5], less than 4.30; in data set [7], less than 4.00. Moreover, in data set [6], the inhibition (as a rule, the percentage by which the read-out fell short of the control) at 100 µM was determined as 7%. In data set [8] (oral 10 mg/kg vs iv 2 mg/kg), the “Oral Bioavailability (F, AUCINF)” value was found to be 73%. Moreover, the AUC (as a rule, the area under the concentration-time curve, a measure of exposure) in data set [8] (setting [10]) worked out at 15600 ng·h/mL. In data set [8] (setting [10]), the AUC(0-inf) (commonly total exposure, with the tail of the curve extrapolated) came out at 15600 ng·h/mL. For the same compound, the half-life in [8] (mouse, whole blood, iv 2 mg/kg or oral 10 mg/kg, read-out: Half-life in blood (t1/2) (converted)) was 1.9 h. For the same compound, the clearance in [8] (mouse, whole blood, iv 2 mg/kg or oral 10 mg/kg, read-out: Observed clearance) came to 7.8 mL/min/kg. In addition, in [8] (mouse, whole blood, iv 2 mg/kg or oral 10 mg/kg, read-out: Volume of distribution (Vz)), the Vd stood at 1.3 L/kg. Besides, in data set [8] (mouse, whole blood, oral 10 mg/kg, blood), the Cmax (as a rule, the maximum level reached in the sampled fluid or tissue) came to 9310 ng/mL. Moreover, the “secretion of Z A1AT as measured by ELISA” value in [9] is reported as “stimulates secretion of Z A1AT in a dose dependent manner”.

These data come from patent US12221422B2, “Compounds and their use for the treatment of alpha1-antitrypsin deficiency” (CENTESSA PHARMACEUTICALS (UK) LIMITED, priority 2018, dated 2025).
